Measurements from patent publication US11254690B2, “PTEFb inhibiting macrocyclic compounds” (BAYER AKTIENGESELLSCHAFT, priority 2017, dated 2022).

Experiments:
CDK2/CycE = biological target: T1, CDK2/CycE (Homo sapiens, UniProt P24941); test: CDK2/CycE high ATP kinase assay (TR-FRET, 2 mM ATP); type: biochemical; details: Method 2b
T1 construct: GST; purchased ProQinase GmbH (Freiburg, Germany); host or cells: insect cells (Sf9)
How it was run: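 Recombinant GST-tagged human CDK2 and CycE from Sf9 cells (about 10 ng/ml), biotinylated peptide substrate, 2 mM ATP, Tris pH 8.0 buffer; compound pre-incubated 15 min at 22° C. Phospho-substrate detected by TR-FRET with anti-RB(pSer807/pSer811) antibody, 665/622 nm ratio; normalised to no-inhibitor and no-enzyme controls.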

CDK9/CycT1 = biological target: T2, CDK9/CycT1 (Homo sapiens, UniProt P50750); test: CDK9/CycT1 high ATP kinase assay (TR-FRET, 2 mM ATP); type: biochemical; details: for IC50: 2 mM ATP, Method 1b, lower limit for IC50s about 1-2 nM; for Selectivity high ATP CDK9 over high ATP CDK2: IC50 (high ATP CDK2)/IC50 (high ATP CDK9): ratio from Methods 1b and 2b, minimal values for IC50s near the assay limit
T2 construct: Recombinant full-length His-tagged human CDK9 and CycT1; His; purchased Life Technologies PV4131; host or cells: insect cells
How it was run: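 Full-length His-tagged human CDK9/CycT1 from insect cells (about 0.5 μg/ml) was preincubated with compound for 15 min at 22° C in 50 mM Tris/HCl pH 8.0, 10 mM MgCl2, 1.0 mM DTT. Phosphorylation was detected by TR-FRET with anti-RB(pSer807/pSer811) antibody, as the 665/622 nm ratio normalised to no-inhibitor and no-enzyme controls.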

T2 sequence (P50750 whole entry): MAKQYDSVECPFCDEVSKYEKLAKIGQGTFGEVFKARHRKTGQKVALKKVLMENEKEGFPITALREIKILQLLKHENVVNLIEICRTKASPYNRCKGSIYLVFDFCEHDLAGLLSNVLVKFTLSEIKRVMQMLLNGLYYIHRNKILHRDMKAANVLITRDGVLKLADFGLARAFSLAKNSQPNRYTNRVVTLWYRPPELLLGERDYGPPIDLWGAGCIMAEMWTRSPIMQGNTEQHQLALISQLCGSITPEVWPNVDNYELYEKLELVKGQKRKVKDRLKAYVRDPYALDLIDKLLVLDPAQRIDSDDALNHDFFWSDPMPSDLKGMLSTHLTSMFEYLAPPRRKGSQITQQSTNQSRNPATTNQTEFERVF
T2 sequence (O60563 whole entry partner): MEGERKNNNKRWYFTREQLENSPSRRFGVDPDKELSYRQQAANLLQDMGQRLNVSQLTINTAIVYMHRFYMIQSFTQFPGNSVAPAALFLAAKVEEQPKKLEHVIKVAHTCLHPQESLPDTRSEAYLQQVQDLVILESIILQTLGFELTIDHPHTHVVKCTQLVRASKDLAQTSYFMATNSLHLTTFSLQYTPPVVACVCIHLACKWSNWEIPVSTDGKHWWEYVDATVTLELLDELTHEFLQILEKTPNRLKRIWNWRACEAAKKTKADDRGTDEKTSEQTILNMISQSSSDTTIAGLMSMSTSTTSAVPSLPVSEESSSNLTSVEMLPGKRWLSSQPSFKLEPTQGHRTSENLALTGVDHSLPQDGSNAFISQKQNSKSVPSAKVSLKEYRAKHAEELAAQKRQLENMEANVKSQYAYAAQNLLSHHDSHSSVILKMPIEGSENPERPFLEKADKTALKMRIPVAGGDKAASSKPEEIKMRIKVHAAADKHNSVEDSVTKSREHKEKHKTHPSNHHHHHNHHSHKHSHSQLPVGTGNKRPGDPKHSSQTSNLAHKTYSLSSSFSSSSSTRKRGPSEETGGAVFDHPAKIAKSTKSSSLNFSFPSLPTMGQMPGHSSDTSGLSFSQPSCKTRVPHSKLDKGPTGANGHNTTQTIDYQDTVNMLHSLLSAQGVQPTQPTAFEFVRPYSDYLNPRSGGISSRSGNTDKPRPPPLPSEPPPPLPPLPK

| Compound | IC50 (CDK2/CycE) [nM] | IC50 (CDK9/CycT1) [nM] | Selectivity high ATP CDK9 over high ATP CDK2: IC50 (high ATP CDK2)/IC50 (high ATP CDK9) (CDK9/CycT1) |
| --- | --- | --- | --- |
| CS(=N)(=O)Cc1cc2cc(c1)OCCCCOc1cc(ccc1F)-c1nc(ncc1F)N2 (racemic) [Example 4, (rac)-3,20-difluoro-10-[(S-methylsulfonimidoyl)methyl]-13,18-dioxa-5,7,25-triazatetracyclo[17.3.1.1^2,6.1^8,12]pentacosa-1(23),2(25),3,5,8(24),9,11,19,21-nonaene] | 1540 | 3 | 513 |
| CS(=N)(=O)Cc1cc2cc(c1)OCCCCOc1c(F)ccc(c1F)-c1nc(ncc1F)N2 (racemic) [Example 8, (rac)-3,20,23-trifluoro-10-[(S-methylsulfonimidoyl)methyl]-13,18-dioxa-5,7,25-triazatetracyclo[17.3.1.1^2,6.1^8,12]pentacosa-1(23),2(25),3,5,8(24),9,11,19,21-nonaene] | 6520 | 17 | 385 |
| CS(=N)(=O)Cc1cc2cc(c1)OCCCOc1cc(ccc1F)-c1nc(ncc1F)N2 (racemic) [Example 10, (rac)-3,19-difluoro-10-[(S-methylsulfonimidoyl)methyl]-13,17-dioxa-5,7,24-triazatetracyclo[16.3.1.1^2,6.1^8,12]tetracosa-1(22),2(24),3,5,8(23),9,11,18,20-nonaene] | 4750 | 25 | 190 |
| CC(C)(C)OC(=O)N=S(C)(=O)Cc1cc2cc(c1)OCCCCCOc1cc(ccc1F)-c1nc(ncc1F)N2 (racemic) [Example 5, (rac)-tert-butyl [{[3,21-difluoro-13,19-dioxa-5,7,26-triazatetracyclo[18.3.1.1^2,6.1^8,12]hexacosa-1(24),2(26),3,5,8(25),9,11,20,22-nonaen-10-yl]methyl}(methyl)oxido-λ^6-sulfanylidene]carbamate] | > 20000 | 24 | >833 |
| CC(C)(C)OC(=O)N=S(C)(=O)Cc1cc2cc(c1)OCCCCOc1cc(ccc1F)-c1nc(ncc1F)N2 (racemic) [Example 3, (rac)-tert-butyl [{[3,20-difluoro-13,18-dioxa-5,7,25-triazatetracyclo[17.3.1.1^2,6.1^8,12]pentacosa-1(23),2(25),3,5,8(24),9,11,19,21-nonaen-10-yl]methyl}(methyl)oxido-λ^6-sulfanylidene]carbamate] | > 20000 | 5 | >4000 |
| CS(=N)(=O)Cc1cc2cc(c1)OCCCCCOc1cc(ccc1F)-c1nc(ncc1F)N2 (racemic) [Example 6, (rac)-3,21-difluoro-10-[(S-methylsulfonimidoyl)methyl]-13,19-dioxa-5,7,26-triazatetracyclo[18.3.1.1^2,6.1^8,12]hexacosa-1(24),2(26),3,5,8(25),9,11,20,22-nonaene] | 16200 | 5 | 3240 |

Next, values leading:

| IC50 (CDK2/CycE) [nM] | IC50 (CDK9/CycT1) [nM] | Selectivity high ATP CDK9 over high ATP CDK2: IC50 (high ATP CDK2)/IC50 (high ATP CDK9) (CDK9/CycT1) | Compound |
| --- | --- | --- | --- |
| 501 | – | 251 | CC1CCCCOc2cc(ccc2F)-c2cc(ncc2F)Nc2cc(CS(C)(=N)=O)cc(n2)O1 (single isomer, unassigned) [Example 22, 3,21-difluoro-14-methyl-10-[(S-methylsulfonimidoyl)methyl]-13,19-dioxa-5,7,25-triazatetracyclo[18.3.1.1^2,6.1^8,12]hexacosa-1(24),2(26),3,5,8(25),9,11,20,22-nonaene] |
| 2450 | – | 1225 | CC1CCCCOc2cc(ccc2F)-c2cc(ncc2F)Nc2cc(CS(C)(=N)=O)cc(n2)O1 (single isomer, unassigned) [Example 21, 3,21-difluoro-14-methyl-10-[(S-methylsulfonimidoyl)methyl]-13,19-dioxa-5,7,25-triazatetracyclo[18.3.1.1^2,6.1^8,12]hexacosa-1(24),2(26),3,5,8(25),9,11,20,22-nonaene] |
| 144 | – | 72 | CC1CCCOc2cc(ccc2F)-c2cc(ncc2F)Nc2cc(CS(C)(=N)=O)cc(n2)O1 (single isomer, unassigned) [Example 16, 3,20-difluoro-14-methyl-10-[(S-methylsulfonimidoyl)methyl]-13,18-dioxa-5,7,24-triazatetracyclo[17.3.1.1^2,6.1^8,12]pentacosa-1(23),2(25),3,5,8(24),9,11,19,21-nonaene] |
| 132 | – | 132 | CC1CCCOc2cc(ccc2F)-c2cc(ncc2F)Nc2cc(CS(C)(=N)=O)cc(n2)O1 (single isomer, unassigned) [Example 17, 3,20-difluoro-14-methyl-10-[(S-methylsulfonimidoyl)methyl]-13,18-dioxa-5,7,24-triazatetracyclo[17.3.1.1^2,6.1^8,12]pentacosa-1(23),2(25),3,5,8(24),9,11,19,21-nonaene] |
| 360 | – | 189 | CC1CCCOc2cc(ccc2F)-c2cc(ncc2F)Nc2cc(CS(C)(=O)=O)cc(n2)O1 (racemic) [Example 28, 3,20-difluoro-14-methyl-10-[(methylsulfonyl)methyl]-13,18-dioxa-5,7,24-triazatetracyclo[17.3.1.1^2,6.1^8,12]pentacosa-1(23),2(25),3,5,8(24),9,11,19,21-nonaene] |
| 737 | 7 | 105 | CS(=N)(=O)Cc1cc2nc(c1)OCCCCOc1cc(ccc1F)-c1cc(ncc1F)N2 (racemic) [Example 2, (rac)-3,20-difluoro-10-[(S-methylsulfonimidoyl)methyl]-13,18-dioxa-5,7,24-triazatetracyclo[17.3.1.1^2,6.1^8,12]pentacosa-1(23),2(25),3,5,8(24),9,11,19,21-nonaene] |
